Measured values published in article PMC3716696 (PLoS ONE, 2013).
Entries after “also recorded” stand apart in the source; their conditions may differ. Non-standard residues stand in square brackets, D forms with d. Residues, ends and D or L forms follow the SMILES beside them. *: point of attachment. Sta = CC(C)C[C@H](N)[C@@H](O)CC(=O)O; Isovaleryl = CC(C)CC(=O)*

Legend:
[1] = system: SP-degrading activity of spinal cord membrane lysates; assay: SP degradation in spinal cord membrane lysates with general enzyme class inhibitors; type: biochemical, mouse; details: membrane lysate 1 mg/mL, 30 min pre-incubation 37°C, SP 100 μM, 1 h 37°C; 1 mM o-phenanthroline, 10 μM pepstatin A, 1 mM PMSF; LC-MS, N = 4
Method: The membrane fraction of spinal cord lysates (1 mg/mL) were pre-incubated at 37°C for 30 minutes separately with each of the following inhibitors (N = 4): 10 μM E-64 (cysteine protease), 1 mM iodoacetamide (cysteine protease), 1 mM o-phenanthroline (metalloprotease), 10 μM pepstatin A (aspartyl protease), 1 mM phenylmethylsulfonyl fluoride (PMSF, serine protease), 1 mM diisopropylfluorophosphate (serine protease), and vehicle (PBS with DMSO for 5% DMSO final concentration in reaction). After the pre-incubation with each inhibitor, SP was added to 100 μM final concentration. The reactions proceeded at 37°C for 1 h. Dried samples were dissolved in 0.1% formic acid (aq) and analyzed by LC-MS/MS for SP-degrading activity (i.e. formation of SP1–7 and SP1–9) using the method outlined in “MALDI-TOF MS and LC-MS/MS analysis of in vitro peptides” section.
(§1) For LC-MS analysis, an Agilent 6220 LC-ESI-TOF instrument was used in the positive mode. A Bio-Bond C18 (5 μm, 150×2.1 mm) column was used together with a precolumn (C18, 3.5 μm, 2×20 mm). Following injection of 25 μL of 5 μM solutions, the samples were trapped at an isocratic flow rate of 0.1 ml/min for five minutes and eluted at a flow rate of 0.25 mL/min via a mobile phase gradient of 2–100% B in 40 min (Mobile Phase A: 0.1% formic acid in water, Mobile Phase B: 0.1% formic acid in acetonitrile). MS analysis was performed with an electrospray ionization (ESI) source. The capillary voltage was set at 4.0 kV and the fragmentor voltage to 100 V. The drying gas temperature was 350°C, the drying gas flow rate was 10 L/min, and the nebulizer pressure was 45 psi. Data was collected in the centroid mode using a mass range of 100–500 Da. The peptides were analyzed by mass extraction of the +3 charge state.

[2] = system: ACE; details: cited from earlier work
[3] = system: NEP; details: cited from earlier work
[4] = system: MMP9; details: cited from earlier work
[5] = system: ECE-1; details: cited from earlier work
[6] = system: ECE-2; details: cited from earlier work
[7] = system: Meprin 1A; details: cited from earlier work
[8] = system: Pitrilysin; details: cited from earlier work
[9] = soluble fraction of mouse spinal cord lysates (1 mg/mL); details: mouse (C57BL/6), 37°C, up to 240 min
[10] = membrane fraction of mouse spinal cord lysates (1 mg/mL); details: mouse (C57BL/6), 37°C, up to 240 min
[11] = mouse spinal cord tissue (endogenous peptides, boiled and extracted); details: mouse (C57BL/6)
[12] = membrane fraction of spinal cord lysates (1 mg/mL) with class-selective inhibitors; details: mouse, 37°C, up to 1 h
[13] = membrane fraction of spinal cord lysates (1 mg/mL) with metalloprotease inhibitors; details: mouse, 37°C, up to 1 h
[14] = cell lysates with synthetic peptide; synthetic peptide introduced into a living tissue (pseudo-in vivo); details: cited from earlier work
[15] = system: SP-degrading / SP1–9-producing activity of spinal cord membrane lysates; assay: SP degradation in spinal cord membrane lysates with metalloprotease inhibitors; type: biochemical, mouse; details: membrane lysate 1 mg/mL, 30 min pre-incubation 37°C, SP 100 μM, 1 h 37°C, LC-MS, N = 4; for Inhibition of SP degradation (in words): inhibitor 100 μM (TIMP2 4 μM)
Method: All inhibitors were present at 100 μM except for TIMP2, which was present at 4 μM. After the pre-incubation with each inhibitor, either SP or SP1–9 was added to 100 μM final concentration. The reactions proceeded at 37°C for 1 h. Dried samples were dissolved in 0.1% formic acid (aq) and analyzed by LC-MS/MS for SP or SP1–9-degrading activity.
as §1

[16] = in vivo; cited from earlier work
[17] = membrane fraction of spinal cord lysates (1 mg/mL); details: mouse (C57BL/6), 37°C, up to 1 h
[18] = N-terminal SP fragment formation in spinal cord soluble and membrane lysates; type: in vitro ADME, mouse; details: for Degradation product of SP1–9 in spinal cord lysates: SP1–9 100 μM incubated in spinal cord lysate, 37°C, 1 h, LC-MS (Fig. S3)
Method: Three mouse spinal cords were dounce homogenized in 1.1 mL phosphate buffered saline (PBS) on ice and then sonicated for 15 s at 4°C. Tissue debris was separated by centrifuging the sample at 5,000×g for 20 min at 4°C. The soluble fraction was collected after ultracentrifugation of the sample at 55,000×g for 1 h at 4°C. The membrane pellet that remained was washed 3x with 600 μL PBS. The pellet was then suspended in 100 μL PBS by sonication for 5 s at 4°C. The sample was ultracentrifugation at 55,000×g for 1 h at 4°C and the supernatant was separated as a wash membrane sample. The pellet was suspended in 100 μL of 1 mM sodium deoxycholate (Alfa Aesar) by sonication for 5 s at 4°C then stirred for 30 min at 4°C. Ultracentrifugation of the sample at 55,000×g for 1 h at 4°C separated the supernatant as a 1 mM deoxycholate-solubilized membrane fraction. The remaining pellet was washed 3x with 600 μL 1 mM deoxycholate solution. The pellet was subsequently suspended in 4, 12, and 24 mM deoxycholate following the same cycle. The final pellet was suspended in 100 μL PBS. The protein content in the soluble and membrane lysates was quantified by the Bradford assay. […] The reactions were quenched with neat formic acid and speed vac dried. The samples were dissolved in 0.1% formic acid (aq) and analyzed by MALDI-TOF MS for SP-degrading activity (i.e. formation of SP1–7 and SP1–9) using the method outlined in “MALDI-TOF MS and LC-MS/MS analysis of in vitro peptides” section. […]
MALDI-TOF MS was performed with α-cyano-4-hydroxycinnamic acid as the matrix using 2 μL of a 50 μM reconstituted degradation reaction solution (based on initial SP quantities). […]
To determine the candidate proteolytic pathway or pathways for SP degradation in the spinal cord, we separated tissue lysates from mouse spinal cords into membrane and soluble fractions, incubated them with full-length SP for varying lengths of time (15, 60, 240 min) and then analyzed the quenched reactions by MALDI mass spectrometry to identify any SP fragments that had been produced. […]

[19] = system: NEP; assay: SP degradation and SP levels in WT and Nep–/– spinal cord; type: in vitro ADME, mouse; details: 1 mg/mL WT and Nep–/– spinal cord membrane lysates, LC-MS/MS
Method: The levels of SP in WT and Nep^–/– mice spinal cord tissue (N = 4) were compared by IDMS using Top 6 MS/MS as described previously. The degradation of SP was compared in 1 mg/mL WT and Nep^–/– mice spinal cord membrane lysates using LC-MS/MS analysis following the above method.

## O=S(=O)(F)Cc1ccccc1 [PMSF, phenylmethylsulfonyl fluoride]
[1]
  Effect on SP1–7 production: regulate SP1-7 production
  Inhibition of SP1–9 production: small effect
  Inhibition of SP degradation (SP levels vs vehicle): Modest increases

## H2N-RPKPQQFFGLM-CONH2
[2]
  cleaved bond: G9-L10
[3]
  cleaved bond: G9-L10
[4]
  cleaved bond: G9-L10
[5]
  cleaved bond: G9-L10
[6]
  cleaved bond: G9-L10
[7]
  cleaved bond: G9-L10
[8]
  cleaved bond: G9-L10
[9]
  not cleaved: No discernable fragments appeared in the soluble fraction
[10]
  cleaved bond: G9-L10, major
  fragment found: SP1–10; also recorded: SP1–8; also recorded: SP1–7; also recorded: SP3-11
[11]
  cleaved bond: G9-L10, major
  fragment found: SP1–7, major
[12]
  cleaved bond: G9-L10, major
  fragment found: SP1–7
[13]
  cleaved bond: G9-L10, major
[14]
  fragment found: SP1–9; also recorded: SP1–8; also recorded: SP1–7; also recorded: SP5–11; also recorded: SP6–11; also recorded: SP7–11; also recorded: SP8–11

## c1cnc2c(c1)ccc1cccnc12 [O-phenanthroline]
[1]
  Effect on SP1–7 production: regulate SP1-7 production
  Inhibition of SP1–9 production: most potent inhibitor of SP1–9 production; also recorded: strongest inhibitor of SP1–9 production
  Inhibition of SP degradation (SP levels vs vehicle): most effective compound at inhibiting SP degradation; also recorded: twice as high as the vehicle control

## CNC(=O)[C@H](Cc1c[nH]c2ccccc12)NC(=O)[C@@H](CC(=O)NO)CC(C)C [GM6001]
[15]
  Inhibition of SP degradation (in words): most effective compound at preventing SP degradation; also recorded: least amount of SP degradation
[15]; inhibitor 100 μM
  Decrease in SP1–9 production compared to vehicle: greater than 10 fold
  Increase in SP levels compared to vehicle: ~2 fold
  Inhibition of SP1–9 production (in words): best inhibitor of SP1–9 production; also recorded: strongly inhibited; also recorded: potently blocks
[16]
  Bioavailability: bioavailable

## CC(C)CC(=O)N[C@H](C(=O)N[C@H](C(=O)N[C@@H](CC(C)C)[C@@H](O)CC(=O)N[C@@H](C)C(=O)N[C@@H](CC(C)C)[C@@H](O)CC(=O)O)C(C)C)C(C)C [pepstatin A] (Isovaleryl-VV[Sta]A[Sta]-OH)
[1]
  Effect on SP1–7 production: regulate SP1-7 production
  Inhibition of SP1–9 production: small effect
  Inhibition of SP degradation (SP levels vs vehicle): Modest increases

## H-RPKPQQFFG-OH
[17]
  fragment found: SP1–7

## CSCC[C@H](NC(=O)[C@H](CC(C)C)NC(=O)CNC(=O)[C@H](Cc1ccccc1)NC(=O)[C@H](Cc1ccccc1)NC(=O)[C@H](CCC(N)=O)NC(=O)[C@H](CCC(N)=O)NC(=O)[C@@H]1CCCN1C(=O)[C@H](CCCCN)NC(=O)[C@@H]1CCCN1C(=O)[C@@H](N)CCCN=C(N)N)C(N)=O [SP, Substance P]
[18]; pH 7.34
  SP fragments formed in soluble fraction of spinal cord lysate: No discernable fragments
[19]
  SP degradation in NEP+/+ vs NEP–/– spinal cord lysates: no significant difference

## CCCCC[C@H](CC(=O)NO)C(=O)N[C@H](C(=O)N1CCC[C@H]1CO)C(C)C [actinonin]
[15]
  Inhibition of SP degradation (in words): could inhibit
[15]; inhibitor 100 μM
  Inhibition of SP1–9 production (in words): could inhibit

## N=C(N)NCCC[C@H](N)C(=O)N1CCC[C@H]1C(=O)N[C@@H](CCCCN)C(=O)N1CCC[C@H]1C(=O)N[C@@H](CCC(N)=O)C(=O)N[C@@H](CCC(N)=O)C(=O)N[C@@H](Cc1ccccc1)C(=O)N[C@@H](Cc1ccccc1)C(=O)NCC(=O)O [SP1–9] (H-RPKPQQFFG-OH)
[18]
  Degradation product of SP1–9 in spinal cord lysates: SP1–7 was produced
[18]; listed as SP 1–9
  Degradation product of SP1–9 in spinal cord lysates: SP1–7 is produced

## CC(C)C[C@H](NP(=O)(O)O[C@@H]1O[C@@H](C)[C@H](O)[C@@H](O)[C@H]1O)C(=O)N[C@@H](Cc1c[nH]c2ccccc12)C(=O)O [phosphoramidon]
[15]
  Inhibition of SP degradation (in words): could inhibit
[15]; inhibitor 100 μM
  Inhibition of SP1–9 production (in words): could inhibit
[15]; inhibitor 100 μM, listed as Phosphoramidon
  Inhibition of SP1–9 production (in words): slows SP1–9 production
